Test results published in ChEMBL document CHEMBL3259793, “Novel cycloalkenepyrazoles as inhibitors of bub1 kinase” (ACS Med Chem Lett, 2014).

Target: Mitotic checkpoint serine/threonine-protein kinase BUB1 (Homo sapiens, UniProt O43683)
Assay: Inhibition of Bub1 kinase (unknown origin) by TR-FRET kinase assay

Chain of Mitotic checkpoint serine/threonine-protein kinase BUB1 (O43683 whole entry): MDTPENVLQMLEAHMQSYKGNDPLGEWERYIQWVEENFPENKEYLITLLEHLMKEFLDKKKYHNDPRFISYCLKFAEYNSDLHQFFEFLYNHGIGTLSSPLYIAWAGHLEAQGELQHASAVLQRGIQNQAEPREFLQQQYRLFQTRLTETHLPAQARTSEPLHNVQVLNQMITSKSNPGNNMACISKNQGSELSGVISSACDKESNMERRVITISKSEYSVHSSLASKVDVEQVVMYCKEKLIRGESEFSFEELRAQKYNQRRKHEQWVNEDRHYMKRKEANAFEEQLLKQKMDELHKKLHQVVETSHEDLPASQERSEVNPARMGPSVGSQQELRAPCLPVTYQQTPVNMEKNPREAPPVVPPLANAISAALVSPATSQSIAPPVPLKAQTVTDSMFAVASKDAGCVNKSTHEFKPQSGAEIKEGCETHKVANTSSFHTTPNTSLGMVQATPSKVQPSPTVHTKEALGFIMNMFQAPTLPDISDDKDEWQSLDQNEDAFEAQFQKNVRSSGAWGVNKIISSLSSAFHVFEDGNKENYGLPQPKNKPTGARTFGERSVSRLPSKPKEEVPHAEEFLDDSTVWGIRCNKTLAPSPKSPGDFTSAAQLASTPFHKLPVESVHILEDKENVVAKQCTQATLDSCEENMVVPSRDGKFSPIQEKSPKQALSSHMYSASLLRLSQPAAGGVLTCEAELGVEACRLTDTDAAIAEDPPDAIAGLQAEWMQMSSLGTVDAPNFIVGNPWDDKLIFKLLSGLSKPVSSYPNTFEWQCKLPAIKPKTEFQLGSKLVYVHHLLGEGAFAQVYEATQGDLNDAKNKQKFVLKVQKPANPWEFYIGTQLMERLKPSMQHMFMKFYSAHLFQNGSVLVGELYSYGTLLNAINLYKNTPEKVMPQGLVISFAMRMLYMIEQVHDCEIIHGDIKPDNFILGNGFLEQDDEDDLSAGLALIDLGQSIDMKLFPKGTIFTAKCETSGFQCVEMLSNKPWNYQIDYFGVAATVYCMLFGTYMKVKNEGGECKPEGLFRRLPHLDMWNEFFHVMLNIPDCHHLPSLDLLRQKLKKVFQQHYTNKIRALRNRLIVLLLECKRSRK

- IC50: 500 nM
Structure (SMILES): CCOC(=O)c1cnccc1Nc1nc(-c2nn(Cc3ccccc3F)c3c2CCC3)ncc1Oc1ccccc1C(=O)OCC
